*1 amine or outer side, *2 acyl side, *3 side chain or, on linkers, in order; H or OH if unused. Where a SMILES comes first, the peptide text is derived from it. Side-chain parts run from the residue outwards. [ ]: non-standard residue; d: D form. The star is where a group is joined. C20 diacid = O=C(O)CCCCCCCCCCCCCCCCCCC(=O)*; αMePhe(2-F) = C[C@](N)(Cc1ccccc1F)C(=O)O; γGlu = O=C(O)[C@H](CCC(=O)[*:2])N[*:1]; AEEA = NCCOCCOCC(=O)O; Aib = CC(C)(N)C(=O)O; CO = O=C([*:1])[*:2]; X12 = Fc1cccc(N*)c1; GABA = NCCCC(=O)O Bounds are passed on as bounds.

1 compound from US12281149B2, “Modulators of G-protein coupled receptors” (priority 2021, dated 2025) can be followed below.

Common to all, as to format: cell-based
The target of assay [1] is T1, GLP-1 receptor (Homo sapiens, UniProt P43220). The assay can be described thus: HitHunter cAMP assay, GLP-1 receptor.
Assay [2] addresses T2, GIP receptor (Homo sapiens, UniProt P48546).
T2 sequence (P48546 22-466): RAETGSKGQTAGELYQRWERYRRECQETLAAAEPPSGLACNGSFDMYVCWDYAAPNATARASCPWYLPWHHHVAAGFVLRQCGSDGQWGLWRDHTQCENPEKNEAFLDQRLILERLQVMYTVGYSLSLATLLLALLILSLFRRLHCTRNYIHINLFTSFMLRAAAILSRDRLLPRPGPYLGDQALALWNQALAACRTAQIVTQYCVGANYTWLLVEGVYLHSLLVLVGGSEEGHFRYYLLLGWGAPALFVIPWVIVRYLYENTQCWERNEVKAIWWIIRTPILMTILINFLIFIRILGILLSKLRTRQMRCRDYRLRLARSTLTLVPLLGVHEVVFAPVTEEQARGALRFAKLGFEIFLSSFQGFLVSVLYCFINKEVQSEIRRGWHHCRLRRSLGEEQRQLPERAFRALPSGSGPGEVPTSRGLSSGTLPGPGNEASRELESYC
The assay can be described thus: PathHunter β-arrestin assay, GIP receptor. The note with it: β-arrestin-2 recruitment, PathHunter CHO-K1 GIPR β-Arrestin Cell Line, 90 min at 37° C.; normalized to GIP; read-out: GIPR β Arrestin EC50. Details: host or cells: PathHunter CHO-K1 GIPR β-Arrestin Cell Line.

Assay [3] deals with T1, GLP-1 receptor. The assay can be described thus: PathHunter β-arrestin assay, GLP-1 receptor. The note with it: β-arrestin-2 recruitment, PathHunter CHO-K1 GLP1R β-Arrestin Cell Line, 90 min at 37° C.; normalized to GLP-1; read-out: GLP-1R β Arrestin EC50. Set-up: host or cells: PathHunter CHO-K1 GLP1R β-Arrestin Cell Line.
Assay [4] has as its target T2, GIP receptor. The assay can be described thus: HitHunter cAMP assay, GIP receptor.

T1 sequence (P43220 24-463): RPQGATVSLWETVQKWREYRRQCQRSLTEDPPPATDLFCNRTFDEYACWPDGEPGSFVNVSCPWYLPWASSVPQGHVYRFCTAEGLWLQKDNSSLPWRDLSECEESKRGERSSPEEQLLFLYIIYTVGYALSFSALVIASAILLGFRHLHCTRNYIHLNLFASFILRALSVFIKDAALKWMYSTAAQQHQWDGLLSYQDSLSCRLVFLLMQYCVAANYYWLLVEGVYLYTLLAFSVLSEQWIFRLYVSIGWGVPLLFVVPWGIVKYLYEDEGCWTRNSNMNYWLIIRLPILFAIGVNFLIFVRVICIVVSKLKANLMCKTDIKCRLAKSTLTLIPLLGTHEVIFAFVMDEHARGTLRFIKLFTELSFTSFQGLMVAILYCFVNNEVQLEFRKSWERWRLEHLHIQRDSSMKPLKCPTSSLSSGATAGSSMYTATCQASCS

Consider `CC[C@H](C)[C@H](NC(=O)[C@H](CC(C)C)NC(=O)[C@H](Cc1c[nH]c2ccccc12)NC(=O)[C@H](CCC(N)=O)NC(=O)[C@@H](NC(=O)[C@H](Cc1ccccc1)NC(=O)[C@H](C)NC(=O)[C@H](CCCCNC(=O)COCCOCCNC(=O)COCCOCCNC(=O)CC[C@H](NC(=O)CCCCCCCCCCCCCCCCCCC(=O)O)C(=O)O)NC(=O)[C@H](CCC(N)=O)NC(=O)[C@H](C)NC(=O)[C@@H](NC(=O)[C@H](CCCCN)NC(=O)[C@H](CC(=O)O)NC(=O)[C@H](CC(C)C)NC(=O)C(C)(C)NC(=O)[C@@H](NC(=O)[C@H](CO)NC(=O)[C@H](Cc1ccc(O)cc1)NC(=O)[C@H](CC(=O)O)NC(=O)[C@H](CO)NC(=O)[C@@H](NC(=O)[C@](C)(Cc1ccccc1F)NC(=O)[C@@H](NC(=O)CNC(=O)[C@H](CCC(=O)O)NC(=O)CCCNC(=O)Nc1cccc(F)c1)[C@@H](C)O)[C@@H](C)O)[C@@H](C)CC)[C@@H](C)CC)C(C)C)C(=O)N[C@@H](C)C(=O)NCC(=O)NCC(=O)N1CCC[C@H]1C(=O)N[C@@H](CO)C(=O)N[C@@H](CO)C(=O)NCC(=O)N[C@@H](C)C(=O)N1CCC[C@H]1C(=O)N1CCC[C@H]1C(=O)N1CCC[C@H]1C(=O)N[C@@H](CO)C(N)=O` [Compound 282] ({X12-CO-GABA}-EGT[αMePhe(2-F)]TSDYSI[Aib]LDKIAQK([AEEA-AEEA-γGlu-C20 diacid])AFVQWLIAGGPSSGAPPPS-NH2), for which the EC50 at GLP-1 receptor [1] (CHO cells stably expressing human GLP-1 receptor, cAMP accumulation, 30 min, read-out: EC50 GLP-1R) is 0.1 to 1 nM; on GIP receptor [2], greater than 1000 nM; on GLP-1 receptor [3], greater than 1000 nM; at GIP receptor [4] (CHO cells stably expressing GIP receptor, cAMP accumulation, 30 min, read-out: EC50 GIP-1R) it was 10 to 100 nM. Besides, the Emax at GLP-1 receptor [1] (CHO cells, cAMP, normalized to maximum signal from GLP-1 (high) and DMSO (low), read-out: Emax GLP-1R) is 92%; on GIP receptor [4] (CHO cells, cAMP, normalized to maximum signal from GIP (high) and DMSO (low), read-out: Emax GIP-1R), 90%.
